Measured values published in PubChem BioAssay (NCI).
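Assay format: 96-well plates, 48-hour exposure. TGI is the concentration that stops growth completely.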

What was measured:
Experiment in all cases: NCI tumour cell line growth inhibition, 48 h
[1] = system: 786-0 renal
[2] = system: A498 renal
[3] = system: A549 NSCLC
[4] = system: ACHN renal
[5] = system: BT-549 breast
[6] = system: CAKI-1 renal
[7] = system: CCRF-CEM leukemia
[8] = system: DU-145 prostate
[9] = system: HCC-2998 colon
[10] = system: HCT-116 colon
[11] = system: HCT-15 colon
[12] = system: HL-60(TB) leukemia
[13] = system: HOP-62 NSCLC
[14] = system: HT29 colon
[15] = system: IGROV1 ovarian
[16] = system: K-562 leukemia
[17] = system: LOX IMVI melanoma
[18] = system: M14 melanoma
[19] = system: MALME-3M melanoma
[20] = system: MCF7 breast
[21] = system: MDA-MB-231 breast
[22] = system: MDA-MB-435
[23] = system: MDA-N
[24] = system: MOLT-4 leukemia
[25] = system: NCI-H226 lung
[26] = system: NCI-H23 lung
[27] = system: NCI-H460 lung
[28] = system: NCI-H522 lung
[29] = system: OVCAR-3 ovarian
[30] = system: OVCAR-4 ovarian
[31] = system: OVCAR-5 ovarian
[32] = system: OVCAR-8 ovarian
[33] = system: PC-3 prostate
[34] = system: RPMI-8226 leukemia
[35] = system: SF-268 CNS
[36] = system: SK-MEL-2 melanoma
[37] = system: SK-MEL-28 melanoma
[38] = system: SK-MEL-5 melanoma
[39] = system: SN12C renal
[40] = system: SNB-19 CNS
[41] = system: SNB-75 CNS
[42] = system: SR leukemia
[43] = system: SW-620 colon
[44] = system: T-47D breast
[45] = system: TK-10 renal
[46] = system: U251 CNS
[47] = system: UACC-257 melanoma
[48] = system: UACC-62 melanoma
[49] = system: UO-31 renal
[50] = system: COLO 205 colon
[51] = system: EKVX NSCLC
[52] = system: HOP-92 NSCLC
[53] = system: HS 578T breast
[54] = system: KM12 colon
[55] = system: NCI/ADR-RES ovarian
[56] = system: RXF 393 renal
[57] = system: SF-295 CNS
[58] = system: SF-539 CNS
[59] = system: SK-OV-3 ovarian

O=C(N=Nc1ccc([N+](=O)[O-])cc1)NNc1ccc([N+](=O)[O-])cc1
TGI [1]: 27 µM
TGI [2]: 26.6 µM
TGI [3]: > 100 µM
TGI [4]: 38.8 µM
TGI [5]: > 100 µM
TGI [6]: > 100 µM
TGI [7]: 47.1 µM
TGI [8]: 18.4 µM
TGI [9]: 27.3 µM
TGI [10]: 30.3 µM
TGI [11]: 62.8 µM
TGI [12]: 46.9 µM
TGI [13]: 34 µM
TGI [14]: 61.8 µM
TGI [15]: 26.8 µM
TGI [16]: 45.8 µM
TGI [17]: 24.4 µM
TGI [18]: 31 µM
TGI [19]: 53.1 µM
TGI [20]: 22.9 µM
TGI [21]: 76.2 µM
TGI [22]: 57.5 µM
TGI [23]: 32.3 µM
TGI [24]: 40.8 µM
TGI [25]: 51 µM
TGI [26]: 44.7 µM
TGI [27]: 47.2 µM
TGI [28]: 33.1 µM
TGI [29]: 59.2 µM
TGI [30]: 44.8 µM
TGI [31]: 48 µM
TGI [32]: 41.9 µM
TGI [33]: 52 µM
TGI [34]: 58.2 µM
TGI [35]: 80.1 µM
TGI [36]: 28.9 µM
TGI [37]: 36.2 µM
TGI [38]: 31.2 µM
TGI [39]: 40.5 µM
TGI [40]: > 100 µM
TGI [41]: 79.9 µM
TGI [42]: 72.6 µM
TGI [43]: 45.4 µM
TGI [44]: 25.2 µM
TGI [45]: 53.6 µM
TGI [46]: 59.7 µM
TGI [47]: 67.5 µM
TGI [48]: 22.2 µM
TGI [49]: 32.6 µM

NC(CCCCCP(=O)(O)O)C(=O)O (stereo not drawn)
TGI [3]: > 100 µM
TGI [4]: > 100 µM
TGI [5]: > 100 µM
TGI [6]: > 100 µM
TGI [7]: > 100 µM
TGI [50]: > 100 µM
TGI [8]: > 100 µM
TGI [51]: > 100 µM
TGI [9]: > 100 µM
TGI [10]: > 100 µM
TGI [11]: > 100 µM
TGI [12]: > 100 µM
TGI [52]: > 100 µM
TGI [53]: > 100 µM
TGI [14]: > 100 µM
TGI [15]: > 100 µM
TGI [16]: > 100 µM
TGI [54]: > 100 µM
TGI [17]: > 100 µM
TGI [18]: > 100 µM
TGI [21]: > 100 µM
TGI [22]: > 100 µM
TGI [23]: > 100 µM
TGI [24]: > 100 µM
TGI [26]: > 100 µM
TGI [27]: > 100 µM
TGI [28]: > 100 µM
TGI [55]: > 100 µM
TGI [29]: > 100 µM
TGI [30]: > 100 µM
TGI [31]: > 100 µM
TGI [32]: > 100 µM
TGI [33]: > 100 µM
TGI [34]: > 100 µM
TGI [56]: > 100 µM
TGI [35]: > 100 µM
TGI [57]: > 100 µM
TGI [58]: > 100 µM
TGI [36]: > 100 µM
TGI [37]: > 100 µM
TGI [38]: > 100 µM
TGI [59]: > 100 µM
TGI [39]: > 100 µM
TGI [40]: > 100 µM
TGI [41]: > 100 µM
TGI [42]: > 100 µM
TGI [43]: > 100 µM
TGI [44]: > 100 µM
TGI [45]: > 100 µM
TGI [46]: > 100 µM
TGI [47]: > 100 µM
TGI [48]: > 100 µM
TGI [49]: > 100 µM

ON=C1CCCCC(=NO)CCCC1
TGI [1]: > 100 µM
TGI [2]: > 100 µM
TGI [3]: > 100 µM
TGI [4]: > 100 µM
TGI [5]: > 100 µM
TGI [6]: > 100 µM
TGI [50]: > 100 µM
TGI [8]: > 100 µM
TGI [9]: > 100 µM
TGI [10]: > 100 µM
TGI [11]: > 100 µM
TGI [52]: > 100 µM
TGI [53]: > 100 µM
TGI [14]: > 100 µM
TGI [16]: > 100 µM
TGI [54]: > 100 µM
TGI [17]: > 100 µM
TGI [19]: > 100 µM
TGI [20]: > 100 µM
TGI [21]: > 100 µM
TGI [22]: > 100 µM
TGI [23]: > 100 µM
TGI [25]: > 100 µM
TGI [26]: > 100 µM
TGI [27]: > 100 µM
TGI [28]: > 100 µM
TGI [55]: > 100 µM
TGI [30]: > 100 µM
TGI [32]: > 100 µM
TGI [33]: > 100 µM
TGI [34]: > 100 µM
TGI [35]: > 100 µM
TGI [57]: > 100 µM
TGI [58]: > 100 µM
TGI [36]: > 100 µM
TGI [37]: > 100 µM
TGI [38]: > 100 µM
TGI [59]: > 100 µM
TGI [39]: > 100 µM
TGI [40]: > 100 µM
TGI [41]: > 100 µM
TGI [43]: > 100 µM
TGI [44]: > 100 µM
TGI [45]: > 100 µM
TGI [46]: > 100 µM
TGI [47]: > 100 µM
TGI [48]: > 100 µM
TGI [49]: > 100 µM

COc1cc(N=C(N)N=C(N)N)c2ncccc2c1
TGI [1]: > 100 µM
TGI [2]: > 100 µM
TGI [3]: > 100 µM
TGI [4]: > 100 µM
TGI [5]: > 100 µM
TGI [6]: > 100 µM
TGI [50]: > 100 µM
TGI [8]: > 100 µM
TGI [51]: > 100 µM
TGI [9]: > 100 µM
TGI [10]: > 100 µM
TGI [11]: > 100 µM
TGI [13]: > 100 µM
TGI [52]: > 100 µM
TGI [53]: > 100 µM
TGI [14]: > 100 µM
TGI [15]: > 100 µM
TGI [54]: > 100 µM
TGI [17]: > 100 µM
TGI [18]: > 100 µM
TGI [19]: > 100 µM
TGI [20]: > 100 µM
TGI [21]: > 100 µM
TGI [22]: > 100 µM
TGI [23]: > 100 µM
TGI [25]: 62.7 µM
TGI [26]: > 100 µM
TGI [27]: > 100 µM
TGI [28]: > 100 µM
TGI [55]: > 100 µM
TGI [29]: > 100 µM
TGI [30]: > 100 µM
TGI [31]: > 100 µM
TGI [32]: > 100 µM
TGI [33]: > 100 µM
TGI [56]: > 100 µM
TGI [35]: > 100 µM
TGI [57]: > 100 µM
TGI [58]: > 100 µM
TGI [36]: > 100 µM
TGI [37]: > 100 µM
TGI [38]: > 100 µM
TGI [59]: > 100 µM
TGI [39]: > 100 µM
TGI [40]: > 100 µM
TGI [41]: > 100 µM
TGI [43]: > 100 µM
TGI [44]: > 100 µM
TGI [45]: > 100 µM
TGI [46]: > 100 µM
TGI [47]: > 100 µM
TGI [48]: > 100 µM
TGI [49]: > 100 µM
